# Measurements published in patent US7767659B2, “Synthesis of naturally occurring ecteinascidins and related compounds” (Pharma Mar, S.A., priority 2002, dated 2010).
# Legend:
# [1] = system: A-549; assay: cells; conditions: Homo sapiens, A549, 48 h; for GI50: read-out: A549 GI50; for CC50: read-out: A549 LC50; for IC (TGI): read-out: A549 TGI
# Description: (§1) This form of the assay employs 96 well cell culture microplates of 9 mm diameter (Faircloth, 1988; Mosmann, 1983). Most of the cell lines are obtained from American Type Culture Collection (ATCC) derived from different human cancer types.
# (§2) Cells are maintained in RPMI 1640 10% FBS, supplemented with 0.1 g/l penicillin and 0.1 g/l streptomycin sulfate and then incubated at 37° C., 5% CO2 and 98% humidity. For the experiments, cells were harvested from subconfluent cultures using trypsin and resuspended in fresh medium before plating.
# (§3) Cells are seeded in 96 well microtiter plates, at 5×10^3 cells per well in aliquots of 195 μl medium, and they are allowed to attach to the plate surface by growing in drug free medium for 18 hours. Afterward, samples are added in aliquots of 5 μl in a ranging from 10 to 10^−8 μg/ml, dissolved in DMSO/EtOH/PBS (0.5:0.5:99). After 48 hours exposure, the antitumor effect are measured by the SRB methodology: cells are fixed by adding 50 μl of cold 50% (wt/vol) trichloroacetic acid (TCA) and incubating for 60 minutes at 4° C. Plates are washed with deionized water and dried. One hundred μl of SRB solution (0.4% wt/vol in 1% acetic acid) is added to each microtiter well and incubated for 10 minutes at room temperature. Unbound SRB is removed by washing with 1% acetic acid. Plates are air dried and bound stain is solubilzed with Tris buffer. Optical densities are read on a automated spectrophotometric plate reader at a single wavelength of 490 nm.
# (§4) The values for mean +/− SD of data from triplicate wells are calculated. Some parameters for cellular responses can be calculated: GI=growth inhibition, TGI=total growth inhibition (cytostatic effect) and LC=cell killing (cytotoxic effect).
# [2] = system: HT-29; assay: cells; conditions: Homo sapiens, HT-29, 48 h; for GI50: read-out: HT29 GI50; for CC50: read-out: HT29 LC50; for IC (TGI): read-out: HT29 TGI
# Description: as §1, §2, §3, §4
# [3] = system: LoVo; assay: cells; conditions: Homo sapiens, LoVo, 48 h; for GI50: read-out: LOVO GI50; for CC50: read-out: LOVO LC50; for IC (TGI): read-out: LOVO TGI
# Description: as §1, §2, §3, §4
# [4] = system: DU-145; assay: Inhibition of cells growth by colorimetric assay (SRB); conditions: Homo sapiens, DU-145, 48 h; for GI50: read-out: DU145 GI50; for CC50: read-out: DU145 LC50; for IC (TGI): read-out: DU145 TGI
# Description: as §1, §2, §3, §4
# [5] = system: HeLa-APL; assay: as above; conditions: Homo sapiens, 48 h; for GI50: read-out: HELA-APL GI50; for CC50: read-out: HELA-APL LC50; for IC (TGI): read-out: HELA-APL TGI
# Description: as §1, §2, §3, §4
# [6] = system: HeLa; assay: as above; conditions: Homo sapiens, HeLa, 48 h; for GI50: read-out: HELA GI50; for CC50: read-out: HELA LC50; for IC (TGI): read-out: HELA TGI
# Description: as §1, §2, §3, §4
# [7] = system: IGROV-1; assay: as above; conditions: Homo sapiens, IGROV-1, 48 h; for GI50: read-out: IGROV GI50; for CC50: read-out: IGROV LC50; for IC (TGI): read-out: IGROV TGI
# Description: as §1, §2, §3, §4
# [8] = system: IGROV-ET; assay: as above; conditions: Homo sapiens, 48 h; for GI50: read-out: IGROV-ET GI50; for CC50: read-out: IGROV-ET LC50; for IC (TGI): read-out: IGROV-ET TGI
# Description: as §1, §2, §3, §4
# [9] = system: K-562; assay: as above; conditions: Homo sapiens, K562, 48 h; for GI50: read-out: K562 GI50; for CC50: read-out: K562 LC50; for IC (TGI): read-out: K562 TGI
# Description: as §1, §2, §3, §4
# [10] = system: LNCaP; assay: as above; conditions: Homo sapiens, LNCaP, 48 h; for GI50: read-out: LNCAP GI50; for CC50: read-out: LNCAP LC50; for IC (TGI): read-out: LNCAP TGI
# Description: as §1, §2, §3, §4
# [11] = system: LoVo-Dox; assay: as above; conditions: Homo sapiens, 48 h; for GI50: read-out: LOVO-DOX GI50; for CC50: read-out: LOVO-DOX LC50; for IC (TGI): read-out: LOVO-DOX TGI
# Description: as §1, §2, §3, §4
# [12] = system: PANC-1; assay: as above; conditions: Homo sapiens, PANC-1, 48 h; for GI50: read-out: PANC-1 GI50; for CC50: read-out: PANC-1 LC50; for IC (TGI): read-out: PANC-1 TGI
# Description: as §1, §2, §3, §4
# [13] = system: SK-BR-3; assay: as above; conditions: Homo sapiens, SK-BR-3, 48 h; for GI50: read-out: SK-BR3 GI50; for CC50: read-out: SK-BR3 LC50; for IC (TGI): read-out: SK-BR3 TGI
# Description: as §1, §2, §3, §4
# [14] = system: SK-MEL-28; assay: as above; conditions: Homo sapiens, SK-MEL-28, 48 h; for GI50: read-out: MEL-28 GI50; for CC50: read-out: MEL-28 LC50; for IC (TGI): read-out: MEL-28 TGI
# Description: as §1, §2, §3, §4
compound,measurement,setting,value
COC1=C(C)C(=O)C2=C(C1=O)[C@@H]1C3[C@@H]4SC[C@]5(NCCc6c5[nH]c5ccccc65)C(=O)OC[C@@H](c5c6c(c(C)c(OC(C)=O)c54)OCO6)N3[C@@H](O)[C@H](C2)N1C (stereo partly drawn) [ET-736-quinone],GI50,[1],0.0256 µM
same,CC50,[1],0.109 µM
same,IC (TGI),[1],0.0529 µM
same,GI50,[2],0.0512 µM
same,CC50,[2],13 µM
same,IC (TGI),[2],0.128 µM
same,GI50,[3],0.265 µM
same,CC50,[3],1.3 µM
same,IC (TGI),[3],0.596 µM
same,GI50,[4],0.0451 µM
same,CC50,[4],0.129 µM
same,IC (TGI),[4],0.0763 µM
same,GI50,[5],0.0555 µM
same,CC50,[5],0.111 µM
same,IC (TGI),[5],0.0784 µM
same,GI50,[6],3.32 µM
same,CC50,[6],0.114 µM
same,IC (TGI),[6],6.14 µM
same,GI50,[7],0.0671 µM
same,CC50,[7],0.735 µM
same,IC (TGI),[7],0.215 µM
same,GI50,[8],0.51 µM
same,CC50,[8],1.2 µM
same,IC (TGI),[8],0.782 µM
same,GI50,[9],0.00496 µM
same,CC50,[9],0.105 µM
same,IC (TGI),[9],0.0137 µM
same,GI50,[10],0.0248 µM
same,CC50,[10],0.0799 µM
same,IC (TGI),[10],0.0446 µM
same,GI50,[11],0.747 µM
same,CC50,[11],13 µM
same,IC (TGI),[11],3.28 µM
same,GI50,[12],0.394 µM
same,CC50,[12],13 µM
same,IC (TGI),[12],0.957 µM
same,GI50,[13],0.00533 µM
same,CC50,[13],0.192 µM
same,IC (TGI),[13],0.0113 µM
same,GI50,[14],0.123 µM
same,CC50,[14],0.718 µM
same,IC (TGI),[14],0.3 µM
COC1=C(C)C(=O)C2=C(C1=O)C1C3[C@@H]4SCC(=O)C(=O)OC[C@@H](c5c6c(c(C)c(OC(C)=O)c54)OCO6)N3[C@@H](O)[C@H](C2)N1C (stereo partly drawn) [Et-594-quinone],GI50,[1],2.35 µM
same,CC50,[1],10.3 µM
same,IC (TGI),[1],4.91 µM
same,GI50,[2],0.653 µM
same,CC50,[2],16.3 µM
same,IC (TGI),[2],1.71 µM
same,GI50,[3],0.759 µM
same,CC50,[3],16.3 µM
same,IC (TGI),[3],2.91 µM
same,GI50,[4],1.99 µM
same,CC50,[4],14.6 µM
same,IC (TGI),[4],5.39 µM
same,GI50,[5],0.398 µM
same,CC50,[5],1.14 µM
same,IC (TGI),[5],0.674 µM
same,GI50,[6],0.343 µM
same,CC50,[6],1.12 µM
same,IC (TGI),[6],0.62 µM
same,GI50,[7],0.452 µM
same,CC50,[7],3.64 µM
same,IC (TGI),[7],0.958 µM
same,GI50,[8],4.37 µM
same,CC50,[8],16.3 µM
same,IC (TGI),[8],9.11 µM
same,GI50,[9],0.137 µM
same,CC50,[9],1.62 µM
same,IC (TGI),[9],0.478 µM
same,GI50,[10],0.274 µM
same,CC50,[10],0.901 µM
same,IC (TGI),[10],0.498 µM
same,GI50,[11],6.27 µM
same,CC50,[11],16.3 µM
same,IC (TGI),[11],13.1 µM
same,GI50,[12],1.58 µM
same,CC50,[12],14.9 µM
same,IC (TGI),[12],4.86 µM
same,GI50,[13],0.302 µM
same,CC50,[13],1.16 µM
same,IC (TGI),[13],0.593 µM
same,GI50,[14],0.413 µM
same,CC50,[14],1.32 µM
same,IC (TGI),[14],0.738 µM
